Data on 23 compounds can be found in US11534443B2, “Quinazoline compounds, preparation method, use, and pharmaceutical composition thereof” (INSTITUTE OF MATERIA MEDICA, CHINESE ACADEMY OF MEDICAL …, priority 2016, dated 2022).

For one assay, the target named is PI3Kα (Homo sapiens (Human), UniProt P42336). Nature of the assay: Biochemical evaluation of activity of PI3Kα (Kinase-Glo luminescence kinase assay). The note with it: 25 μM ATP, 50 μM PIP2, 1 h at room temperature. Here is the method:
The potency of compounds in the present intention against PI3Kα was assessed by in vitro kinase assay. The kinase activity of PI3Kα was determined by detecting the level of ADP produced in the kinase reaction with luciferase-based luminescence detection.
The Kinase-Glo™ Kinase Assay Kit was purchased from Promega. All assays were performed at room temperature using white OptiPlate™-384 well plate. The PI3Kα kinase was purchased from Invitrogen. The substrate was PIP2 from Invitrogen. The kinase buffer contained 50 mM Hepes (pH 7.5), 3 mM MgCl2, 100 mM NaCl, 1 mM EGTA, 0.03% CHAPS and 2 mM DTT. […] The substrate solution contained 100 μM PIP2 and 50 μM ATP. The test compound was diluted to 10 mM in 100% DMSO and serially diluted three times into ten different concentrations in 100% DMSO. The compound diluted in 100% DMSO was diluted 25-fold in 1×kinase buffer. 2.5 μL of the diluted compound solution and 2.5 μL PI3Kα kinase solution were added to each well of a 384-well plate. The reaction was initiated by addition of 5 μL substrate solution to each well. […] The plate was then covered and the reaction was allowed to proceed for one hour at room temperature, followed by the addition of 10 μL Kinase-Glo™ reagent to each well to stop the reaction.
The percentage of inhibition was calculated as follows: Inhibition %=100−(max−sample RLU)/(max−min)*100
wherein sample RLU was the luminescence reading for a given compound concentration, min was the reading of DMSO control, and max was the reading of the enzyme-free control. The IC50 value was calculated with the XLfit program in Excel.

The test system of assay [1] is human lung cancer cell NCI-H460. Nature of the assay: Tumor cell viability by MTT assay. It counts as cell-based. Conditions: Homo sapiens, NCI-H460, 96 h. Here is the method: After 24 hours, 100 μL of fresh medium containing different concentrations of test compounds and the corresponding solvent control was added into each well to a final concentration of DMSO less than 0.2%. Six to nine concentration groups were set for each test compound, and three parallel wells were set for each group. The plate was incubated at 5% CO2, 37° C. for 96 hours. 20 μL of freshly prepared PBS solution containing 5 mg/mL MTT was added to each well. The supernatant was discarded after incubation for another 4 hours. 150 μL DMSO was added to each well to dissolve the MTT formazan precipitate. After being mixed by a micro-oscillator, the optical density (OD) was measured at the wavelength of 570 nm, and the tumor cells treated with DMSO were used as a control group.

Sequence of PI3Kα (P42336 whole entry): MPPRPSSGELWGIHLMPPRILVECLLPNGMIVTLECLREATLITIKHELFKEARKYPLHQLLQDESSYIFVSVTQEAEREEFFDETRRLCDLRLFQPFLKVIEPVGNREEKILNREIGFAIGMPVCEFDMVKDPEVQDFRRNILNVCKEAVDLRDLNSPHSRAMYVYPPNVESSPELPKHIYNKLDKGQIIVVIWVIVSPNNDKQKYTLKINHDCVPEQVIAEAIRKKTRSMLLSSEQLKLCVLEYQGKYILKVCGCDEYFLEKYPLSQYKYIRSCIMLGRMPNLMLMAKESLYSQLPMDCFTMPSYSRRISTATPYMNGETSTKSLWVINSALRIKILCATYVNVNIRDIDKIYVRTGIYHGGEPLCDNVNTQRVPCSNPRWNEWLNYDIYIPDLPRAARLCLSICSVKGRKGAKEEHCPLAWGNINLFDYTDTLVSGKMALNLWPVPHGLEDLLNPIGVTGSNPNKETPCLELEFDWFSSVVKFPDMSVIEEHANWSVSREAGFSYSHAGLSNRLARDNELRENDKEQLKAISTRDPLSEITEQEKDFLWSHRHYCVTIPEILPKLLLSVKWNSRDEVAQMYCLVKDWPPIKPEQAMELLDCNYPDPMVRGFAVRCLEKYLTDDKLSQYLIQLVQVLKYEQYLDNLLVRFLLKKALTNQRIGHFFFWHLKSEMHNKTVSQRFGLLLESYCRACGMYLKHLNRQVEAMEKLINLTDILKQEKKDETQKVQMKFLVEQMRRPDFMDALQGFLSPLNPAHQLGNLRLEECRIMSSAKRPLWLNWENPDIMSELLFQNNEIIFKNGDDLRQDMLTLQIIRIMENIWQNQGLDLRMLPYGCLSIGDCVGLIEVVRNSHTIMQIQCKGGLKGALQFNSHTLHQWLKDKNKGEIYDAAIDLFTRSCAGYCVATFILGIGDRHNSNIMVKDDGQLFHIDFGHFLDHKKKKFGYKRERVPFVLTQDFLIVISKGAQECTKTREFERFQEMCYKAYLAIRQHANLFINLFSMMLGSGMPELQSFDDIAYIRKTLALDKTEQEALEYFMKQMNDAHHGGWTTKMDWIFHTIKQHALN
Sequence of PI3Kα (P27986 whole entry partner): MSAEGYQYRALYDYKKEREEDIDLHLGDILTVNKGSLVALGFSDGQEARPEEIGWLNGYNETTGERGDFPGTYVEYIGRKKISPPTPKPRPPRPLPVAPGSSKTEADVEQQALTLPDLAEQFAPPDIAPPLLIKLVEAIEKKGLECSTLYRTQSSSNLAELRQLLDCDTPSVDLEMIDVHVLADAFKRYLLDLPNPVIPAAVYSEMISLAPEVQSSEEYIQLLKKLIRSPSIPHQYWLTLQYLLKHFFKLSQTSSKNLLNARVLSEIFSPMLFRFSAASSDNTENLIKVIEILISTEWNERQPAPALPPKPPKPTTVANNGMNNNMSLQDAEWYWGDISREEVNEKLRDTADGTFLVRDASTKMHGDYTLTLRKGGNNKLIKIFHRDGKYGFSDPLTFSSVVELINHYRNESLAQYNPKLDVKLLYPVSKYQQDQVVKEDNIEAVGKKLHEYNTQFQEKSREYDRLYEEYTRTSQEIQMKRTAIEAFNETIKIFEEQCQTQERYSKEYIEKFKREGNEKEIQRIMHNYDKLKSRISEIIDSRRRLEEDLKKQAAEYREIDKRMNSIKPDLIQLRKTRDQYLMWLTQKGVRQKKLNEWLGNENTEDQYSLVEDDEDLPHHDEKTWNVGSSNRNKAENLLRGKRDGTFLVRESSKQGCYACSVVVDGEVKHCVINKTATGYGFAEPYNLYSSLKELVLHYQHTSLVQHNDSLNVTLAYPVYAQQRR

Take `COc1ncc(-c2cc(OC3CCOCC3)c3ncnc(C)c3c2)cc1NS(=O)(=O)c1ccc(F)cc1Cl` [Example 45, N-(2-methoxy-5-(4-methyl-8-((tetrahydro-2H-pyran-4-yl)oxy)quinazolin-6-yl)pyridin-3-yl)-2-chloro-4-fluorobenzenesulfonamide]: the half-maximal inhibitory concentration (IC50) turned out to be 0.92 nM against PI3Kα and 45 nM in assay [1].

Regarding `COc1ncc(-c2cc(OC3CCOCC3)c3ncnc(C)c3c2)cc1NS(=O)(=O)c1ccc(Cl)s1` [Example 46, N-(2-methoxy-5-(4-methyl-8-((tetrahydro-2H-pyran-4-yl)oxy)quinazolin-6-yl)pyridin-3-yl)-5-chlorothiophene-2-sulfonamide], the IC50 against PI3Kα came out at 0.7 nM; in assay [1] it was 29 nM.

For `COc1ncc(-c2cc(OC3CCOCC3)c3ncnc(C)c3c2)cc1NS(C)(=O)=O` [Example 47, N-(2-methoxy-5-(4-methyl-8-((tetrahydro-2H-pyran-4-yl)oxy)quinazolin-6-yl)pyridin-3-yl)methanesulfonamide], the IC50 worked out at 1.4 nM on PI3Kα and 570 nM in assay [1].

For the compound `COc1ncc(-c2cc(OC3CCOCC3)c3ncnc(C)c3c2)cc1NS(=O)(=O)C1CC1` [Example 48, N-(2-methoxy-5-(4-methyl-8-((tetrahydro-2H-pyran-4-yl)oxy)quinazolin-6-yl)pyridin-3-yl)cyclopropanesulfonamide], the figures for the half-inhibitory concentration (IC50) (on PI3Kα; in assay [1]) were 2.1 nM and 280 nM, respectively.

`COc1ncc(-c2cc(O[C@@H]3CCOC3)c3ncnc(C)c3c2)cc1NS(=O)(=O)c1ccc(F)cc1F` [Example 49, (R)—N-(2-methoxy-5-(4-methyl-8-((tetrahydrofuran-3-yl)oxy)quinazolin-6-yl)pyridin-3-yl)-2,4-difluorobenzenesulfonamide]: the IC50 on PI3Kα stood at 0.76 nM; in assay [1], 34 nM.

With `COc1ncc(-c2cc(O[C@@H]3CCOC3)c3ncnc(C)c3c2)cc1NS(C)(=O)=O` [Example 50, (R)—N-(2-methoxy-5-(4-methyl-8-((tetrahydrofuran-3-yl)oxy)quinazolin-6-yl)pyridin-3-yl)methanesulfonamide], the results for the 50% inhibitory concentration (IC50) (on PI3Kα; in assay [1]) were 2.2 nM and 790 nM, respectively.

In the case of `COc1ncc(-c2cc(O[C@H]3CCOC3)c3ncnc(C)c3c2)cc1NS(=O)(=O)c1ccc(F)cc1F` [Example 51, (S)—N-(2-methoxy-5-(4-methyl-8-((tetrahydrofuran-3-yl)oxy)quinazolin-6-yl)pyridin-3-yl)-2,4-difluorobenzenesulfonamide], the concentration for half-maximal inhibition (IC50) was 0.72 nM against PI3Kα and 32 nM in assay [1].

On to `COc1ncc(-c2cc(O[C@H]3CCOC3)c3ncnc(C)c3c2)cc1NS(C)(=O)=O` [Example 52, (S)—N-(2-methoxy-5-(4-methyl-8-((tetrahydrofuran-3-yl)oxy)quinazolin-6-yl)pyridin-3-yl)methanesulfonamide], for which the IC50 on PI3Kα came to 2.1 nM; in assay [1], 670 nM.

Regarding `COc1ncc(-c2cc(OCC3CCOCC3)c3ncnc(C)c3c2)cc1NS(=O)(=O)c1ccc(F)cc1F` [Example 53, N-(2-methoxy-5-(4-methyl-8-((tetrahydro-2H-pyran-4-yl)methoxy)quinazolin-6-yl)pyridin-3-yl)-2,4-difluorobenzenesulfonamide], the IC50 on PI3Kα was 0.73 nM; in assay [1], 38 nM.

With `COc1ncc(-c2cc(OC3CCCCC3)c3ncnc(C)c3c2)cc1NS(=O)(=O)c1ccc(F)cc1F` [Example 55, N-(5-(8-(cyclohexyloxy)-4-methylquinazolin-6-yl)-2-methoxypyridin-3-yl)-2,4-difluorobenzenesulfonamide], the IC50 on PI3Kα was 1.7 nM; in assay [1], 97 nM.

For the compound `COc1ncc(-c2cc(OC3CCCC3)c3ncnc(C)c3c2)cc1NS(=O)(=O)c1ccc(F)cc1F` [Example 56, N-(5-(8-(cyclopentyloxy)-4-methylquinazolin-6-yl)-2-methoxypyridin-3-yl)-2,4-difluorobenzenesulfonamide], the results for the IC50 (at PI3Kα; in assay [1]) were 0.92 nM and 73 nM, respectively.

Turning to `COc1ncc(-c2cc(OC3CCC(F)(F)CC3)c3ncnc(C)c3c2)cc1NS(=O)(=O)c1ccc(F)cc1F` [Example 57, N-(5-(8-((4,4-difluorocyclohexyl)oxy)-4-methylquinazolin-6-yl)-2-methoxypyridin-3-yl)-2,4-difluorobenzenesulfonamide], the IC50 on PI3Kα was found to be 1.7 nM; in assay [1], 450 nM.

As for `COc1ncc(-c2cc(OC3CCOC(C)(C)C3)c3ncnc(C)c3c2)cc1NS(=O)(=O)c1ccc(F)cc1F` (stereo not shown) [Example 58, N-(5-(8-((2,2-dimethyltetrahydro-2H-pyran-4-yl)oxy)-4-methylquinazolin-6-yl)-2-methoxypyridin-3-yl)-2,4-difluorobenzenesulfonamide], the IC50 on PI3Kα stood at 1 nM; in assay [1], 56 nM.

With `COc1ncc(-c2cc(OCC3(C)COC3)c3ncnc(C)c3c2)cc1NS(=O)(=O)c1ccc(F)cc1F` [Example 59, N-(2-methoxy-5-(4-methyl-8-((3-methyloxetan-3-yl)methoxy)quinazolin-6-yl)pyridin-3-yl)-2,4-difluoro-benzenesulfonamide], the concentration for half-maximal inhibition (IC50) against PI3Kα came to 0.74 nM; in assay [1] it was 17 nM.

`COc1ncc(-c2cc(OCC3CCCO3)c3ncnc(C)c3c2)cc1NS(=O)(=O)c1ccc(F)cc1F` (stereo not shown) [Example 60, N-(2-methoxy-5-(4-methyl-8-((tetrahydrofuran-2-yl)methoxy)quinazolin-6-yl)pyridin-3-yl)-2,4-difluorobenzenesulfonamide]: the figures for the IC50 (against PI3Kα; in assay [1]) were 1.3 nM and 240 nM, respectively.

In the case of `COc1ncc(-c2cc(OCC3CCOC3)c3ncnc(C)c3c2)cc1NS(=O)(=O)c1ccc(F)cc1F` (stereo not shown) [Example 61, N-(2-methoxy-5-(4-methyl-8-((tetrahydrofuran-3-yl)methoxy)quinazolin-6-yl)pyridin-3-yl)-2,4-difluorobenzenesulfonamide], the IC50 was found to be 1 nM against PI3Kα and 45 nM in assay [1].

On to `COc1ncc(-c2cc(OC3CCN(C)CC3)c3ncnc(C)c3c2)cc1NS(=O)(=O)c1ccc(F)cc1F` [Example 62, N-(2-methoxy-5-(4-methyl-8-((1-methylpiperidin-4-yl)oxy)quinazolin-6-yl)pyridin-3-yl)-2,4-difluoro-benzenesulfonamide], for which the figures for the IC50 (at PI3Kα; in assay [1]) were 2.5 nM and 260 nM, respectively.

`COc1ncc(-c2cc(OCCN3CCCC3)c3ncnc(C)c3c2)cc1NS(=O)(=O)c1ccc(F)cc1F` [Example 63, N-(2-methoxy-5-(4-methyl-8-(2-(pyrrolidin-1-yl)ethoxy)quinazolin-6-yl)pyridin-3-yl)-2,4-difluorobenzenesulfonamide]: the IC50 against PI3Kα was determined as 10 nM; in assay [1], 2100 nM.

Take `COc1ncc(-c2cc(OCCn3cccn3)c3ncnc(C)c3c2)cc1NS(=O)(=O)c1ccc(F)cc1F` [Example 64, N-(5-(8-(2-(1H-pyrazol-1-yl)ethoxy)-4-methylquinazolin-6-yl)-2-methoxypyridin-3-yl)-2,4-difluorobenzenesulfonamide]: the IC50 against PI3Kα stood at 1.5 nM; in assay [1], 390 nM.

`COc1ncc(-c2cc(OCC3CCN(C)CC3)c3ncnc(C)c3c2)cc1NS(=O)(=O)c1ccc(F)cc1F` [Example 66, N-(2-methoxy-5-(4-methyl-8-((1-methylpiperidin-4-yl)methoxy)quinazolin-6-yl)pyridin-3-yl)-2,4-difluoro-benzenesulfonamide]: the IC50 against PI3Kα was 1.7 nM; in assay [1], 230 nM.

With `COc1ncc(-c2cc(OCCN(C)C)c3ncnc(C)c3c2)cc1NS(=O)(=O)c1ccc(F)cc1F` [Example 67, N-(5-(8-(2-(dimethylamino)ethoxy)-4-methylquinazolin-6-yl)-2-methoxypyridin-3-yl)-2,4-difluorobenzenesulfonamide], the IC50 on PI3Kα worked out at 6.1 nM; in assay [1] it was 3500 nM.

Take `COc1ncc(-c2cc(OCC3CC3)c3ncnc(C)c3c2)cc1NS(=O)(=O)c1ccc(F)cc1F` [Example 68, N-(5-(8-(cyclopropylmethoxy)-4-methylquinazolin-6-yl)-2-methoxypyridin-3-yl)-2,4-difluorobenzenesulfonamide]: the results for the IC50 (on PI3Kα; in assay [1]) were 1.6 nM and 340 nM, respectively.

In the case of `COc1ncc(-c2cc(OC(C)C)c3ncnc(C)c3c2)cc1NS(=O)(=O)c1ccc(F)cc1F` [Example 69, N-(5-(8-isopropoxy-4-methylquinazolin-6-yl)-2-methoxypyridin-3-yl)-2,4-difluorobenzenesulfonamide], the results for the IC50 (against PI3Kα; in assay [1]) were 2.2 nM and 50 nM, respectively.
